Measurements: patent US11771765B2, “Light augmented treatment method” (The Procter & Gamble Company, priority 2019, dated 2023)

Key:
protoporphyrin IX (PPIX) [1] = assay: Protoporphyrin IX levels in treated M. furfur cells by HPLC; format: cell-based; conditions: increasing concentrations
Source text: PPIX absorb light in the 400 nm range, and when light is absorbed, PPIX transitions to an excited triplet state that can react with triplet oxygen to produce singlet oxygen or the excited porphyrin can generate ROS through single electron processes. These reactive species result in a loss of cell viability.
M. furfur cells are exposed to other antifungals that are not considered chelators (i.e. selenium sulfide (SeSx), Sulfur, Climbazole, and Terbinafine). After treatment, cells are then exposed to light, or not exposed to light. Both OD are measured to measure growth and PPIX levels are measured.

M. furfur CBS 7982 = assay: Fractional Inhibitor Concentration (FIC): antimicrobial plus 409 nm light on M. furfur growth; format: cell-based, Malassezia furfur; conditions: for shortest light exposure time when applied in combination to give growth inhibition: 409 nm light, with the lowest inhibiting concentration; for growth, OD 600 nm: 16 h growth; for lowest concentration to give growth inhibition: antimicrobial alone, no light; for lowest concentration to give growth inhibition / lowest concentration when applied in combination with light to give growth inhibition: inhibition = OD <=50% of untreated control; for FIC value / Combinatorial Effect: antimicrobial plus 409 nm light; for Combinatorial Effect: classified by FIC value; for lowest concentration when applied in combination with light to give growth inhibition: with 409 nm light
Protocol: Fractional Inhibitor Concentration (FIC) is a conventional methodology for evaluating the interaction of two antimicrobial chemicals. […] In an embodiment of the present invention, FIC is used to determine combinatorial effects of one chemical and exposure to light on Malassezia growth and/or viability in an in vitro system.
• 1. M. furfur CBS 7982 cells are exposed to a varying concentrations of an antimicrobial active (e.g. ZPT, Piroctone Olamine) for a specified amount of time (e.g. 2 min to 3 hours). • 2. After exposure, the antimicrobial is washed away by centrifugation of the cells and a series of washes • 3. Cells are then exposed to light at a wavelength of 409 nm for varying lengths of time • 4. Cells are then allowed to grow up overnight (e.g. 17 h) to determine the impact of the treatment on viability and growth of the organism by measuring OD600 II. Data Analysis: • 1. Inhibition of growth is determined to be where the OD value obtained is <=50% of the untreated control • 2. The lowest concentration value of the antimicrobial agent which inhibits growth is determined • 3. Likewise, the shortest light exposure time is determined that gives growth inhibition • 4. Finally, the combination of the lowest concentration of the antimicrobial and the shortest light exposure time that provides growth inhibition is determined • 5. The FIC value is determined using the calculation below:
[formula] • 6. The combinatorial effect of the antimicrobial and light is classified according to the chart below: […]
(§1) M. furfur is incubated for one hour with varying concentrations of Piroctone Olamine. Cell pellets are collected by centrifugation so that most of the anti-fungal material has been removed. The cell pellet is suspended in PBS and 500 uL samples are distributed to four 12 well plates and treated with light (409 nm) for 1, 10 or 60 minutes or stored in the dark. Samples are then diluted into mDixon, and incubated for 16 h with subsequent growth measured by OD 600 nm.
as §1, with “Hinokitiol.” for “Piroctone Olamine.”, “27” for “16”, “nm. […]” for “nm.”

protoporphyrin IX (PPIX) [2] = assay: Protoporphyrin IX levels in treated M. furfur cells by HPLC; format: cell-based
M. furfur = assay: Dependence of photosensitivity on wavelength, M. furfur (Table 5); format: cell-based, Malassezia furfur; set-up: overnight growth in mDixon: unit not given here; conditions: for overnight growth in mDixon: N=1
Protocol: Dependence of photosensitivity on wavelength. A fresh overnight culture is diluted 100 fold and grown for three hours to an OD of 0.16. M. furfur is treated at the indicated dose and cultured another three hours. Cells are harvested by centrifugation, suspended in PBS, and exposed to an LED array at the indicated wavelength. The illumination is for ten minutes with 1200 foot candles. The cultures are then allowed to grow overnight in mDixon. N=1.

[3] = LED arrays of 520 (green) and 595 (yellow) light

In the case of [O-]n1ccccc1=S.[O-]n1ccccc1=S.[Zn+2] [ZPT, zinc salt of 1-hydroxy-2-pyridinethione], the “PPIX levels” value (protoporphyrin IX (PPIX) [1]) is reported as “increased levels of PPIX”, the “shortest light exposure time when applied in combination to give growth inhibition” value (M. furfur CBS 7982) is reported as 2 min and the “growth, OD 600 nm” value (M. furfur CBS 7982; ZPT 1.25 ppm 3 h, 409 nm light 0 min) is reported as 7.76. For the same molecule, the “growth, OD 600 nm” value (M. furfur CBS 7982; ZPT 1.25 ppm 3 h, 409 nm light 2 min) was 7.24, the “growth, OD 600 nm” value (M. furfur CBS 7982; ZPT 1.25 ppm 3 h, 409 nm light 10 min) was 6.24 and the “growth, OD 600 nm” value (M. furfur CBS 7982; ZPT 1.25 ppm 3 h, 409 nm light 60 min) was 1.96. The “growth, OD 600 nm” value (M. furfur CBS 7982; ZPT 2.5 ppm 3 h, 409 nm light 0 min) was 7.12, the “growth, OD 600 nm” value (M. furfur CBS 7982; ZPT 2.5 ppm 3 h, 409 nm light 2 min) was 3.35 and the “growth, OD 600 nm” value (M. furfur CBS 7982; ZPT 2.5 ppm 3 h, 409 nm light 10 min) was 0.31. The “growth, OD 600 nm” value (M. furfur CBS 7982; ZPT 2.5 ppm 3 h, 409 nm light 60 min) was 0.03, the “growth, OD 600 nm” value (M. furfur CBS 7982; ZPT 5 ppm 3 h, 409 nm light 0 min) was 6.21 and the “growth, OD 600 nm” value (M. furfur CBS 7982; ZPT 5 ppm 3 h, 409 nm light 2 min) was 5.30. The “growth, OD 600 nm” value (M. furfur CBS 7982; ZPT 5 ppm 3 h, 409 nm light 10 min) was 3.72, the “growth, OD 600 nm” value (M. furfur CBS 7982; ZPT 5 ppm 3 h, 409 nm light 60 min) was 0.87 and the “growth, OD 600 nm” value (M. furfur CBS 7982; ZPT 10 ppm 3 h, 409 nm light 0 min) was 4.85. The “growth, OD 600 nm” value (M. furfur CBS 7982; ZPT 10 ppm 3 h, 409 nm light 2 min) was 4.91, the “growth, OD 600 nm” value (M. furfur CBS 7982; ZPT 10 ppm 3 h, 409 nm light 10 min) was 4.06 and the “growth, OD 600 nm” value (M. furfur CBS 7982; ZPT 10 ppm 3 h, 409 nm light 60 min) was 0.83. For the same molecule, the “growth, OD 600 nm” value (M. furfur CBS 7982; ZPT 20 ppm 3 h, 409 nm light 0 min) was 0.51, the “growth, OD 600 nm” value (M. furfur CBS 7982; ZPT 20 ppm 3 h, 409 nm light 2 min) was 0.58 and the “growth, OD 600 nm” value (M. furfur CBS 7982; ZPT 20 ppm 3 h, 409 nm light 10 min) was 0.64. The “growth, OD 600 nm” value (M. furfur CBS 7982; ZPT 20 ppm 3 h, 409 nm light 60 min) was 0.37, the “lowest concentration to give growth inhibition” value (M. furfur CBS 7982) was 10 ppm and the FIC value (M. furfur CBS 7982) was 0.28. The “Combinatorial Effect” value (M. furfur CBS 7982) was “synergistic”, the “lowest concentration when applied in combination with light to give growth inhibition” value (M. furfur CBS 7982) was 2.5 ppm and the “Total PPIX” value (protoporphyrin IX (PPIX) [2]; ZPT 2.5 ppm) was 0.37 ng. For the same molecule, the “Total PPIX” value (protoporphyrin IX (PPIX) [2]; ZPT 5 ppm) was 0.47 ng, the “Total PPIX” value (protoporphyrin IX (PPIX) [2]; ZPT 10 ppm) was 0.27 ng and the “overnight growth in mDixon” value (M. furfur; 6 ppm 3 h, 409 nm LED array, 10 min, 1200 foot candles) was 0.354. The “overnight growth in mDixon” value (M. furfur; 6 ppm 3 h, 520 nm LED array, 10 min, 1200 foot candles) was 3.37, the “overnight growth in mDixon” value (M. furfur; 6 ppm 3 h, 595 nm LED array, 10 min, 1200 foot candles) was 3.75 and the “overnight growth in mDixon” value (M. furfur; 6 ppm 3 h, Dark) was 3.31. For the same molecule, the “photosensitivity” value (M. furfur; LED array of 409 nm light) was “observed photosensitivity” and the “photosensitivity” value (M. furfur; [3]) was “not with LED arrays of 520 (green) and 595 (yellow) light”.
With Cc1cc(CC(C)CC(C)(C)C)n(O)c(=O)c1.NCCO (stereo not drawn) [Piroctone Olamine, 1-Hydroxy-4-methyl-6-(2,4,4-trimethylpentyl)-2-pyridone monoethanolamine salt] the “PPIX levels” value (protoporphyrin IX (PPIX) [1]) was “increased levels of PPIX”, the “shortest light exposure time when applied in combination to give growth inhibition” value (M. furfur CBS 7982) was 1 min and the “growth, OD 600 nm” value (M. furfur CBS 7982; Piroctone Olamine 4 ppm 1 h, 409 nm light 0 min) was 3.6. For the same molecule, the “growth, OD 600 nm” value (M. furfur CBS 7982; Piroctone Olamine 4 ppm 1 h, 409 nm light 1 min) was 4.1, the “growth, OD 600 nm” value (M. furfur CBS 7982; Piroctone Olamine 4 ppm 1 h, 409 nm light 10 min) was 3.9 and the “growth, OD 600 nm” value (M. furfur CBS 7982; Piroctone Olamine 4 ppm 1 h, 409 nm light 60 min) was 3.7. For the same molecule, the “growth, OD 600 nm” value (M. furfur CBS 7982; Piroctone Olamine 8 ppm 1 h, 409 nm light 0 min) was 3.9, the “growth, OD 600 nm” value (M. furfur CBS 7982; Piroctone Olamine 8 ppm 1 h, 409 nm light 1 min) was 0.1 and the “growth, OD 600 nm” value (M. furfur CBS 7982; Piroctone Olamine 8 ppm 1 h, 409 nm light 10 min) was 0.0. The “growth, OD 600 nm” value (M. furfur CBS 7982; Piroctone Olamine 8 ppm 1 h, 409 nm light 60 min) was 0.0, the “growth, OD 600 nm” value (M. furfur CBS 7982; Piroctone Olamine 16 ppm 1 h, 409 nm light 0 min) was 2.6 and the “growth, OD 600 nm” value (M. furfur CBS 7982; Piroctone Olamine 16 ppm 1 h, 409 nm light 1 min) was 0.1. For the same molecule, the “growth, OD 600 nm” value (M. furfur CBS 7982; Piroctone Olamine 16 ppm 1 h, 409 nm light 10 min) was 0.0, the “growth, OD 600 nm” value (M. furfur CBS 7982; Piroctone Olamine 16 ppm 1 h, 409 nm light 60 min) was 0.0 and the “growth, OD 600 nm” value (M. furfur CBS 7982; Piroctone Olamine 32 ppm 1 h, 409 nm light 0 min) was 2.1. The “growth, OD 600 nm” value (M. furfur CBS 7982; Piroctone Olamine 32 ppm 1 h, 409 nm light 1 min) was 0.2, the “growth, OD 600 nm” value (M. furfur CBS 7982; Piroctone Olamine 32 ppm 1 h, 409 nm light 10 min) was 0.0 and the “growth, OD 600 nm” value (M. furfur CBS 7982; Piroctone Olamine 32 ppm 1 h, 409 nm light 60 min) was 0.0. The “growth, OD 600 nm” value (M. furfur CBS 7982; Piroctone Olamine 64 ppm 1 h, 409 nm light 0 min) was 1.3, the “growth, OD 600 nm” value (M. furfur CBS 7982; Piroctone Olamine 64 ppm 1 h, 409 nm light 1 min) was 0.1 and the “growth, OD 600 nm” value (M. furfur CBS 7982; Piroctone Olamine 64 ppm 1 h, 409 nm light 10 min) was 0.0. The “growth, OD 600 nm” value (M. furfur CBS 7982; Piroctone Olamine 64 ppm 1 h, 409 nm light 60 min) was 0.0, the “lowest concentration to give growth inhibition” value (M. furfur CBS 7982) was 64 ppm and the FIC value (M. furfur CBS 7982) was 0.14. For the same molecule, the “Combinatorial Effect” value (M. furfur CBS 7982) was “synergistic”, the “lowest concentration when applied in combination with light to give growth inhibition” value (M. furfur CBS 7982) was 8 ppm and the “Total PPIX” value (protoporphyrin IX (PPIX) [2]; Piroctone Olamine 6 ppm) was 2.6 ng. The “Total PPIX” value (protoporphyrin IX (PPIX) [2]; Piroctone Olamine 8 ppm) was 13.9 ng, the “Total PPIX” value (protoporphyrin IX (PPIX) [2]; Piroctone Olamine 16 ppm) was 20.7 ng and the “Total PPIX” value (protoporphyrin IX (PPIX) [2]; Piroctone Olamine 32 ppm) was 16.5 ng. The “overnight growth in mDixon” value (M. furfur; 8 ppm 3 h, 409 nm LED array, 10 min, 1200 foot candles) was 0.891, the “overnight growth in mDixon” value (M. furfur; 8 ppm 3 h, 520 nm LED array, 10 min, 1200 foot candles) was 4.34 and the “overnight growth in mDixon” value (M. furfur; 8 ppm 3 h, 595 nm LED array, 10 min, 1200 foot candles) was 5.59. The “overnight growth in mDixon” value (M. furfur; 8 ppm 3 h, Dark) was 4.36, the “overnight growth in mDixon” value (M. furfur; 12 ppm 3 h, 409 nm LED array, 10 min, 1200 foot candles) was 0.068 and the “overnight growth in mDixon” value (M. furfur; 12 ppm 3 h, 520 nm LED array, 10 min, 1200 foot candles) was 3.76. The “overnight growth in mDixon” value (M. furfur; 12 ppm 3 h, 595 nm LED array, 10 min, 1200 foot candles) was 4.22, the “overnight growth in mDixon” value (M. furfur; 12 ppm 3 h, Dark) was 2.79 and the “photosensitivity” value (M. furfur; LED array of 409 nm light) was “observed photosensitivity”. For the same molecule, the “photosensitivity” value (M. furfur; [3]) was “not with LED arrays of 520 (green) and 595 (yellow) light”.
